Test results: paper PMC9007972, “Structural and biochemical evidence that ATP inhibits the cancer biomarker human aldehyde dehydrogenase 1A3” (Communications Biology, 2022)

Assays:
ALDH1A3 [1] = molecular target: T1, ALDH1A3 (Homo sapiens, UniProt P47895); experiment: dehydrogenase activity with hexanal, […] ADP (remaining activity); type: biochemical; design: His6-tagged, pET-30 Xa/LIC; settings: read-out: % remaining activity at 0.5 mM
T1 sequence (P47895 2-512): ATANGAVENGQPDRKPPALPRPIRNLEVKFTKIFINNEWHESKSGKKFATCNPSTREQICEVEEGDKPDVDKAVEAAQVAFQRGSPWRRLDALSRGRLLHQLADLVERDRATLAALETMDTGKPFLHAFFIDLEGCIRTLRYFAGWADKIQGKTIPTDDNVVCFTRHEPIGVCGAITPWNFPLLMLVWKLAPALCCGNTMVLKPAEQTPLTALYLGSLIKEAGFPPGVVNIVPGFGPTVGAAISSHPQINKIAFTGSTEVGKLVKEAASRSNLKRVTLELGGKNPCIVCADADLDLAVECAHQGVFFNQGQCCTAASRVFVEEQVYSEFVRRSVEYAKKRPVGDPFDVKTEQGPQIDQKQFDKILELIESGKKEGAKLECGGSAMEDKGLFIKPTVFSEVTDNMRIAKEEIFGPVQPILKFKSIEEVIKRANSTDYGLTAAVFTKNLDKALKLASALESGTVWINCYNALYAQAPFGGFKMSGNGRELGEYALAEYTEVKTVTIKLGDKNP

ALDH3A1 = molecular target: T2, ALDH3A1 (Homo sapiens, UniProt P30838); experiment: fluorimetric dehydrogenase assay with hexanal, […] ATP; type: biochemical; settings: read-out: % remaining activity at 2 mM
T2 construct: His6-tagged, pET-30 Xa/LIC
T2 sequence (P30838 2-453): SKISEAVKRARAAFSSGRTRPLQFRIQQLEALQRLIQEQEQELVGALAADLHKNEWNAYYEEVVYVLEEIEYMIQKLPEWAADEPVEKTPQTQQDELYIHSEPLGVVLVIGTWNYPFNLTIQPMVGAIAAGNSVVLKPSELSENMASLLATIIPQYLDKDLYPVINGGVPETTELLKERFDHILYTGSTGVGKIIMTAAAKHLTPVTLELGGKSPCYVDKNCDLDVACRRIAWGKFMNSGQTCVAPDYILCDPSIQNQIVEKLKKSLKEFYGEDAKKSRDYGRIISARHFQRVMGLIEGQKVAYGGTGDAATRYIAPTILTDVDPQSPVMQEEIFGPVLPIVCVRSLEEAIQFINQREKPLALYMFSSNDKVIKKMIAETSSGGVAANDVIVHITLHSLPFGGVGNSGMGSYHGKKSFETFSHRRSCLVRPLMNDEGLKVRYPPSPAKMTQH

ALDH1A1 = molecular target: T3, ALDH1A1 (Homo sapiens, UniProt P00352); experiment: as above; type: biochemical; settings: read-out: % remaining activity at 2 mM
T3 construct: His6-tagged, pET-30 Xa/LIC
T3 sequence (P00352 2-501): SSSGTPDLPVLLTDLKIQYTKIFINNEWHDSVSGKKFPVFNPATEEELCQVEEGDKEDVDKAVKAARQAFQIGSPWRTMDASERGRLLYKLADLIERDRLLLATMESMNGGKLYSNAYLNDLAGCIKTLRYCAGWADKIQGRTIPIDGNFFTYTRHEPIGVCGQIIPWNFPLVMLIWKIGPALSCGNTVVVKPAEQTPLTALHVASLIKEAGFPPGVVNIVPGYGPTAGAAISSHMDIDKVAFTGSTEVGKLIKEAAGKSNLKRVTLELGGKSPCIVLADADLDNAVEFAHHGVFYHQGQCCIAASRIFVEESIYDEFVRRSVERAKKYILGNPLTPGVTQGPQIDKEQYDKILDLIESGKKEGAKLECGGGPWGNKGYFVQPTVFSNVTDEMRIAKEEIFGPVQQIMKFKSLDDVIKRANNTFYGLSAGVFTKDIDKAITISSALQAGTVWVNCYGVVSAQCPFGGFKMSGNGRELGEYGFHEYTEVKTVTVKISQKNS

ALDH1A3 [2] = molecular target: T1, ALDH1A3; experiment: biochemical
ALDH1A2 = molecular target: T4, ALDH1A2 (Homo sapiens, UniProt O94788); experiment: fluorimetric dehydrogenase assay with hexanal, […] ATP; type: biochemical; settings: read-out: % remaining activity at 2 mM
T4 construct: His6-tagged, pET-30 Xa/LIC
T4 sequence (O94788 1-518): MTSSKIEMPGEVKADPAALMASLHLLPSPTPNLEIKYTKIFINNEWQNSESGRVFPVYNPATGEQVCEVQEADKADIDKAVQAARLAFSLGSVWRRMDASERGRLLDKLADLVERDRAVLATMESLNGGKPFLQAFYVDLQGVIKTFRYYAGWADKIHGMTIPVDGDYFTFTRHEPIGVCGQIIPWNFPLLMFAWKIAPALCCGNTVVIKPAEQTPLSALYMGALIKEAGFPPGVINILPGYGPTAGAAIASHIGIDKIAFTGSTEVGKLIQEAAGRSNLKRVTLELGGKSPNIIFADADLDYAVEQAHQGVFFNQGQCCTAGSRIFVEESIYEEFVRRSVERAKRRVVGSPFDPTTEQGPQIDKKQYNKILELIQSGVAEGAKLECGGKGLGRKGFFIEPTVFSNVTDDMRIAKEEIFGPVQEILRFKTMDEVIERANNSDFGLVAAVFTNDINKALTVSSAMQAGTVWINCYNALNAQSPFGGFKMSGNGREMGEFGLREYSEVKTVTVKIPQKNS

ALDH1A3 [3] = molecular target: T1, ALDH1A3; experiment: X-ray crystal structure ([…] Å); Km from enzyme kinetics without Mg2+; type: biochemical; design: His6-tagged, pET-30 Xa/LIC

SMILES: Nc1ncnc2c1ncn2[C@@H]1O[C@H](COP(=O)(O)OP(=O)(O)O)[C@@H](O)[C@H]1O [ADP]
- remaining activity at 500 µM (ALDH1A3 [1]): 56 ± 4%

SMILES: Nc1ncnc2c1ncn2[C@@H]1O[C@H](CO[P@@](=O)(O)O[P@](=O)(O)OP(=O)(O)O)[C@@H](O)[C@H]1O [ATP]
- remaining activity at 2000 µM (ALDH3A1): 25 ± 1%
- remaining activity at 2000 µM (ALDH1A1): 43 ± 1%
- Ki (ALDH1A3 [2]): 480 ± 80 µM
- remaining activity at 2000 µM (ALDH1A2): 68 ± 2%

SMILES: NC(=O)c1ccc[n+]([C@@H]2O[C@H](COP(=O)([O-])OP(=O)(O)OC[C@H]3O[C@@H](n4cnc5c(N)ncnc54)[C@H](O)[C@@H]3O)[C@@H](O)[C@H]2O)c1 [NAD^+]
- Km (ALDH1A3 [3]): 24 ± 2 µM
